Each compound was assayed on colorectal cancer cell line HT-29 cells (assay: Growth inhibitory effect against cancer cell lines (3H-thymidine uptake), HT-29). Conditions: Homo sapiens, HT-29, inhibition of 3H-thymidine uptake; test substance 18 hrs, then 3H-thymidine 6 hrs; triplicate.
Assay type: cell-based
Outline: (§1)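 Cells seeded at 1.0×10^4/well, grown 24 hrs, then exposed to compound in DMSO for 18 hrs before 6 hrs pulse with ^3H-thymidine (0.25 μCi/well). Harvested cell-incorporated radioactivity counted; IC50 is the concentration halving uptake versus DMSO control, triplicate.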

SMILES	IC50 [nM]
Cn1c(=O)cc(Nc2ccc(CCF)cc2)c2c(=O)n(C3CC3)c(=O)n(-c3ccccc3)c21 [Example 1-293]	100 to 1000
CCNS(=O)(=O)c1cccc(-n2c(=O)n(C3CC3)c(=O)c3c(Nc4ccc(Br)cc4F)cc(=O)n(C)c32)c1 [Example 1-295]	10 to 100
CCc1ccc(Nc2cc(=O)n(C)c3c2c(=O)n(C2CC2)c(=O)n3-c2cccc(NC(C)=O)c2)c(F)c1 [Example 1-296]	< 10
CC(=O)Nc1cccc(-n2c(=O)n(C3CC3)c(=O)c3c(Nc4ccc(I)cc4F)cc(=O)n(C)c32)c1 [Example 1-297]	< 10
C#Cc1ccc(Nc2cc(=O)n(C)c3c2c(=O)n(C2CC2)c(=O)n3-c2cccc(NS(=O)(=O)CC)c2)cc1 [Example 1-298]	< 10
Cn1c(=O)cc(Nc2ccc(C(F)(F)F)cc2F)c2c(=O)n(C3CC3)c(=O)n(-c3cccc(NS(C)(=O)=O)c3)c21 [Example 1-301]	10 to 100
Cn1c(=O)cc(Nc2ccc(Br)cc2F)c2c(=O)n(C3CC3)c(=O)n(-c3cccc(S(=O)(=O)N4CCCCC4)c3)c21 [Example 1-317]	10 to 100
Cn1c(=O)cc(Nc2ccc(Br)cc2F)c2c(=O)n(C3CC3)c(=O)n(-c3cccc(S(=O)(=O)N4CCCC4)c3)c21 [Example 1-318]	< 10
CC(C)S(=O)(=O)Nc1cccc(-n2c(=O)n(C3CC3)c(=O)c3c(Nc4ccc(I)cc4F)cc(=O)n(C)c32)c1 [Example 1-319]	< 10

What follows are compounds tested on p15 protein (assay: Evaluation of p15 induction activity (Western blotting)). Conditions: test substance 0.1 μM, 24 hrs, ACHN cells or HT-29 cells, compared to DMSO, n=2.
Assay type: cell-based
Outline: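 p15 protein quantified by densitometry of anti-p15 Western blots (10 μg protein per lane, mean of n=2). Samples came from HT-29 or ACHN cells given 0.1 μM compound for 24 h after 24 h plating, with DMSO as control.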

SMILES	fold induction at 0.1 µM
Cn1c(=O)cc(Nc2ccc(CCF)cc2)c2c(=O)n(C3CC3)c(=O)n(-c3ccccc3)c21 [Example 1-293]	≥ 1.5
CCNS(=O)(=O)c1cccc(-n2c(=O)n(C3CC3)c(=O)c3c(Nc4ccc(Br)cc4F)cc(=O)n(C)c32)c1 [Example 1-295]	≥ 1.5
CCc1ccc(Nc2cc(=O)n(C)c3c2c(=O)n(C2CC2)c(=O)n3-c2cccc(NC(C)=O)c2)c(F)c1 [Example 1-296]	≥ 1.5
CC(=O)Nc1cccc(-n2c(=O)n(C3CC3)c(=O)c3c(Nc4ccc(I)cc4F)cc(=O)n(C)c32)c1 [Example 1-297]	≥ 1.5
C#Cc1ccc(Nc2cc(=O)n(C)c3c2c(=O)n(C2CC2)c(=O)n3-c2cccc(NS(=O)(=O)CC)c2)cc1 [Example 1-298]	≥ 1.5
Cn1c(=O)cc(Nc2ccc(C(F)(F)F)cc2F)c2c(=O)n(C3CC3)c(=O)n(-c3cccc(NS(C)(=O)=O)c3)c21 [Example 1-301]	≥ 1.5
Cn1c(=O)cc(Nc2ccc(Br)cc2F)c2c(=O)n(C3CC3)c(=O)n(-c3cccc(S(=O)(=O)N4CCCCC4)c3)c21 [Example 1-317]	≥ 1.5
Cn1c(=O)cc(Nc2ccc(Br)cc2F)c2c(=O)n(C3CC3)c(=O)n(-c3cccc(S(=O)(=O)N4CCCC4)c3)c21 [Example 1-318]	≥ 1.5
CC(C)S(=O)(=O)Nc1cccc(-n2c(=O)n(C3CC3)c(=O)c3c(Nc4ccc(I)cc4F)cc(=O)n(C)c32)c1 [Example 1-319]	≥ 1.5

The compounds below were run on p27 protein (assay: p27 protein induction test (Western blotting)). Conditions: test substance (0.1 1M), 24 hrs, ACHN cells or HT-29 cells, compared to DMSO, n=2.
Assay type: cell-based
Description: ACHN cells or HT-29 cells were cultured in a 6 well plate at 2.5×10^5 cells/1.8 mL/well for 24 hrs, a test substance ([…]) dissolved in DMSO was added. After 24 hrs, cells were detached using trypsin-EDTA (ethylene diamine tetraacetic acid) and solubilized with NuPAGE LDS sample buffer (Invitrogen). Using an RC DC protein assay kit (BIO-RAD), the protein concentration of the sample was quantitated, and a sample in an amount corresponding to 10 μg of BSA (bovine serum albumin) was analyzed by Western blotting using an anti-p27 antibody. The density of the band stained with the anti-p27 antibody was measured by a densitometer to quantify the amount of p27 protein. As a control, DMSO was used and the test was performed with n=2 and the average protein amount was determined.

SMILES	fold induction at 0.1 µM
Cn1c(=O)cc(Nc2ccc(CCF)cc2)c2c(=O)n(C3CC3)c(=O)n(-c3ccccc3)c21 [Example 1-293]	≥ 1.5
CCNS(=O)(=O)c1cccc(-n2c(=O)n(C3CC3)c(=O)c3c(Nc4ccc(Br)cc4F)cc(=O)n(C)c32)c1 [Example 1-295]	≥ 1.5
CCc1ccc(Nc2cc(=O)n(C)c3c2c(=O)n(C2CC2)c(=O)n3-c2cccc(NC(C)=O)c2)c(F)c1 [Example 1-296]	≥ 1.5
CC(=O)Nc1cccc(-n2c(=O)n(C3CC3)c(=O)c3c(Nc4ccc(I)cc4F)cc(=O)n(C)c32)c1 [Example 1-297]	≥ 1.5
C#Cc1ccc(Nc2cc(=O)n(C)c3c2c(=O)n(C2CC2)c(=O)n3-c2cccc(NS(=O)(=O)CC)c2)cc1 [Example 1-298]	≥ 1.5
Cn1c(=O)cc(Nc2ccc(C(F)(F)F)cc2F)c2c(=O)n(C3CC3)c(=O)n(-c3cccc(NS(C)(=O)=O)c3)c21 [Example 1-301]	≥ 1.5
Cn1c(=O)cc(Nc2ccc(Br)cc2F)c2c(=O)n(C3CC3)c(=O)n(-c3cccc(S(=O)(=O)N4CCCCC4)c3)c21 [Example 1-317]	≥ 1.5
Cn1c(=O)cc(Nc2ccc(Br)cc2F)c2c(=O)n(C3CC3)c(=O)n(-c3cccc(S(=O)(=O)N4CCCC4)c3)c21 [Example 1-318]	≥ 1.5
CC(C)S(=O)(=O)Nc1cccc(-n2c(=O)n(C3CC3)c(=O)c3c(Nc4ccc(I)cc4F)cc(=O)n(C)c32)c1 [Example 1-319]	≥ 1.5

Each compound was assayed on Renal cancer cell line ACHN cell (assay: Growth inhibitory effect against cancer cell lines (3H-thymidine uptake), ACHN). Conditions: Homo sapiens, ACHN.
Assay type: cell-based
Outline: as §1

SMILES	IC50 [nM]
Cn1c(=O)cc(Nc2ccc(CCF)cc2)c2c(=O)n(C3CC3)c(=O)n(-c3ccccc3)c21 [Example 1-293]	100 to 1000
CCNS(=O)(=O)c1cccc(-n2c(=O)n(C3CC3)c(=O)c3c(Nc4ccc(Br)cc4F)cc(=O)n(C)c32)c1 [Example 1-295]	100 to 1000
CCc1ccc(Nc2cc(=O)n(C)c3c2c(=O)n(C2CC2)c(=O)n3-c2cccc(NC(C)=O)c2)c(F)c1 [Example 1-296]	100 to 1000
CC(=O)Nc1cccc(-n2c(=O)n(C3CC3)c(=O)c3c(Nc4ccc(I)cc4F)cc(=O)n(C)c32)c1 [Example 1-297]	10 to 100
C#Cc1ccc(Nc2cc(=O)n(C)c3c2c(=O)n(C2CC2)c(=O)n3-c2cccc(NS(=O)(=O)CC)c2)cc1 [Example 1-298]	10 to 100
Cn1c(=O)cc(Nc2ccc(C(F)(F)F)cc2F)c2c(=O)n(C3CC3)c(=O)n(-c3cccc(NS(C)(=O)=O)c3)c21 [Example 1-301]	100 to 1000
Cn1c(=O)cc(Nc2ccc(Br)cc2F)c2c(=O)n(C3CC3)c(=O)n(-c3cccc(S(=O)(=O)N4CCCCC4)c3)c21 [Example 1-317]	100 to 1000
Cn1c(=O)cc(Nc2ccc(Br)cc2F)c2c(=O)n(C3CC3)c(=O)n(-c3cccc(S(=O)(=O)N4CCCC4)c3)c21 [Example 1-318]	100 to 1000
CC(C)S(=O)(=O)Nc1cccc(-n2c(=O)n(C3CC3)c(=O)c3c(Nc4ccc(I)cc4F)cc(=O)n(C)c32)c1 [Example 1-319]	< 10
